Results reported in patent US20240208992A1, “MACROCYCLES AS CFTR MODULATORS” (Idorsia Pharmaceuticals Ltd, priority 2021, published 2024).

Target: human F508del-CFTR (Homo sapiens, UniProt P13569, DEL508-508)
Experiment: F508del-CFTR cell surface expression (corrector activity), DiscoveRx ß-galactosidase complementation chemiluminescence assay in recombinant U2OS cell line;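 note: U2OS cells co-expressing ProLink-tagged F508del-CFTR and a membrane-anchored enzyme acceptor, where more surface CFTR restores β-galactosidase activity measured by chemiluminescence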
Conditions: for EC50: EC50, F508del-CFTR cell surface expression, U2OS cells, 16h compound incubation, geomean values; for Emax: U2OS, in relation to Emax of corrector lumacaftor (=100%), arithmetic mean values

Sequence of human F508del-CFTR (P13569 with tags, fused parts or gaps DEL508-508): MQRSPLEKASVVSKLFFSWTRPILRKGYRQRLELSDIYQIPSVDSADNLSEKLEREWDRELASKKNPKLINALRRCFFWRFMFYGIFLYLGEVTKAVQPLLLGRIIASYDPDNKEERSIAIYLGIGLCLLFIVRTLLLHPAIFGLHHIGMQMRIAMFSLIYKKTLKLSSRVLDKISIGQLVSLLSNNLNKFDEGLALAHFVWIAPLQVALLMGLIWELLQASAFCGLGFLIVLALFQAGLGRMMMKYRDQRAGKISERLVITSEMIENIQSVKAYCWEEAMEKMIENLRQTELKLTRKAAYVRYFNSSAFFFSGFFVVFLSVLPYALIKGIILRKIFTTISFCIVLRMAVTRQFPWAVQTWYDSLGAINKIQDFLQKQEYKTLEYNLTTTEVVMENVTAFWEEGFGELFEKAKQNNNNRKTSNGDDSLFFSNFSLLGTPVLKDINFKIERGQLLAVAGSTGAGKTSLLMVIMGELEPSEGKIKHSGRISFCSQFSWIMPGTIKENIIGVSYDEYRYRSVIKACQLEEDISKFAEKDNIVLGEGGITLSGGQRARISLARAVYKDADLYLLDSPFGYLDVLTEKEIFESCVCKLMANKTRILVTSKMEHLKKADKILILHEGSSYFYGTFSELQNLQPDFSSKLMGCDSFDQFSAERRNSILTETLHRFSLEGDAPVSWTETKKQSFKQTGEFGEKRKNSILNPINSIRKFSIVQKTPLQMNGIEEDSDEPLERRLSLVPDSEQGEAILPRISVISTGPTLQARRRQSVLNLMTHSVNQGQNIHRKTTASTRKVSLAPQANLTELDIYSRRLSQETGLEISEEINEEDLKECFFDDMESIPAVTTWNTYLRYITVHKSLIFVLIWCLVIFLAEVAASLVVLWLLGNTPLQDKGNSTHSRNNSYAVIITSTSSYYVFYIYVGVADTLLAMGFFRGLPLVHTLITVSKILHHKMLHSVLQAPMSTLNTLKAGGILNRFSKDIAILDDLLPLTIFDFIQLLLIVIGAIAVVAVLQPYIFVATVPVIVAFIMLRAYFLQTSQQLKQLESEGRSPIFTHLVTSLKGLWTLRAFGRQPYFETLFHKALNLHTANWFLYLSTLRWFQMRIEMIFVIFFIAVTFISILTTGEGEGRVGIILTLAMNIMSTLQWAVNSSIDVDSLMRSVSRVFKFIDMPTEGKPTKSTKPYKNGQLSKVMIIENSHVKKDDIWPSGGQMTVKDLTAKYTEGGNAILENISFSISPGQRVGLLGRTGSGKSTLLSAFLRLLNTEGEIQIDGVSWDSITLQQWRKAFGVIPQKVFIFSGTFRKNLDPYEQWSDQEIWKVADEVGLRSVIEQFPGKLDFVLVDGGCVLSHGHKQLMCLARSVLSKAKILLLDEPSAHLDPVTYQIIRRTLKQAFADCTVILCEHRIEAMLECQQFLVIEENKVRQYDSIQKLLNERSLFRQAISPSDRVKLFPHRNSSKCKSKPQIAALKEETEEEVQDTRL

Row | Structure (SMILES) | EC50 [nM] | Emax [%]
1 | CC(C)C[C@H]1C(=O)N2CCCC[C@@H]2C(=O)N[C@H](Cc2ccccc2)COc2ccc3ncccc3c2C(=O)N[C@H](C(=O)NCCc2noc(C3CC3)n2)CC(=O)N1C [Example 486, (9S,13S,19aR,22R)-22-benzyl-N-(2-(5-cyclopropyl-1,2,4-oxadiazol-3-yl)ethyl)-13-isobutyl-12-methyl-7,11,14,20-tetraoxo-7,8,9,10,11,12,13,14,17,18,19,19a,20,21,22,23-hexadecahydro-16H-pyrido[2′,11:6,7][1]oxa[4,7,10,14]tetraazacycloheptadecino[16,17-f]quinoline-9-carboxamide] | 201 | 303
2 | COc1cccc(CCNC(=O)[C@@H]2CC(=O)N(C)[C@@H](CC(C)C)C(=O)N(C)C3(CC3)C(=O)N[C@H](Cc3ccccc3)COc3ccc(OC)nc3C(=O)N2)c1 [Example 488, (3′R,9′S,13′S)-3′-benzyl-9′-isobutyl-17′-methoxy-N-(3-methoxyphenethyl)-7′,10′-dimethyl-5′,8′,11′,15′-tetraoxo-2′,3′,4′,5′,8′,9′,10′,11′,12′,13′,14′,15′-dodecahydro-7′H-spiro[cyclopropane-1,6′-pyrido[2,3-p][1]oxa[4,7,10,14]tetraazacycloheptadecine]-13′-carboxamide] | 910 | 270
3 | CC(C)C[C@H]1C(=O)N2CCOC[C@@H]2C(=O)N[C@H](Cc2ccccc2)COc2cnc3ccc(F)cc3c2C(=O)N[C@H](C(=O)NCCc2noc(C3CC3)n2)CC(=O)N1C [Example 489, (9S,13S,19aR,22R)-22-benzyl-N-(2-(5-cyclopropyl-1,2,4-oxadiazol-3-yl)ethyl)-5-fluoro-13-isobutyl-12-methyl-7,11,14,20-tetraoxo-7,8,9,10,11,12,13,14,16,17,19,19a,20,21,22,23-hexadecahydro-[1,4]oxazino[3′,4′:6,7][1]oxa[4,7,10,14]tetraazacycloheptadecino[17,16-c]quinoline-9-carboxamide] | 625 | 273
4 | CC(C)C[C@H]1C(=O)N2CCCC[C@@H]2C(=O)N[C@H](Cc2ccccc2)COc2ccc3c(cnn3C)c2C(=O)N[C@H](C(=O)NCCc2c(F)cccc2F)CC(=O)N1C [Example 490, (8S,12S,18aR,21R)-21-benzyl-N-(2,6-difluorophenethyl)-12-isobutyl-3,11-dimethyl-6,10,13,19-tetraoxo-6,7,8,9,10,11,12,13,16,17,18,18a,19,20,21,22-hexadecahydro-3H,15H-pyrido[2′,1′:6,7][1]oxa[4,7,10,14]tetraazacycloheptadecino[16,17-e]indazole-8-carboxamide] | 222 | 181
5 | CC(C)C[C@H]1C(=O)N2CCCC[C@@H]2C(=O)N[C@H](Cc2ccccc2)COc2ccc3c(c2C(=O)N[C@H](C(=O)NCCc2c(F)cccc2F)CC(=O)N1C)OCC3 [Example 491, (8S,12S,18aR,21R)-21-benzyl-N-(2,6-difluorophenethyl)-12-isobutyl-11-methyl-6,10,13,19-tetraoxo-3,4,6,7,8,9,10,11,12,13,16,17,18,18a,19,20,21,22-octadecahydro-15H-benzofuro[7,6-p]pyrido[2,1-f][1]oxa[4,7,10,14]tetraazacycloheptadecine-8-carboxamide] | 209 | 178
6 | COc1cccc(CCNC(=O)[C@@H]2CC(=O)N(C)[C@@H](CC(C)C)C(=O)N(C)C3(CC3)C(=O)N[C@H](Cc3ccccc3)COc3ccc4cnccc4c3C(=O)N2)c1 [Example 494, (3′S,7′S,13′R)-13′-benzyl-7′-isobutyl-N-(3-methoxyphenethyl)-6′,9′-dimethyl-1′,5′,8′,11′-tetraoxo-2′,3′,4′,5′,6′,7′,8′,9′,11′,12′,13′,14′-dodecahydro-1′H-spiro[cyclopropane-1,10′-[1]oxa[4,7,10,14]tetraazacycloheptadecino[16,17-f]isoquinoline]-3′-carboxamide] | 260 | 295
7 | CC(C)C[C@H]1C(=O)N2CCCC[C@@H]2C(=O)N[C@H](Cc2ccccc2)COc2cnc3c(F)cccc3c2C(=O)N[C@H](C(=O)NCCc2noc(C3CC3)n2)CC(=O)N1C [Example 498, (9S,13S,19aR,22R)-22-benzyl-N-(2-(5-cyclopropyl-1,2,4-oxadiazol-3-yl)ethyl)-3-fluoro-13-isobutyl-12-methyl-7,11,14,20-tetraoxo-7,8,9,10,11,12,13,14,17,18,19,19a,20,21,22,23-hexadecahydro-16H-pyrido[2′,11:6,7][1]oxa[4,7,10,14]tetraazacycloheptadecino[17,16-c]quinoline-9-carboxamide] | 198 | 313

Next, values leading:

Row | EC50 [nM] | Emax [%] | Structure (SMILES)
8 | 1340 | 147 | Cc1cc(CCNC(=O)[C@@H]2CC(=O)N(C)[C@@H](CC(C)C)C(=O)N3CCCC[C@@H]3C(=O)N[C@@H](Cc3ccccc3)COc3cnc4ccccc4c3C(=O)N2)on1 [Example 487, (9S,13S,19aR,22S)-22-benzyl-13-isobutyl-12-methyl-N-(2-(3-methylisoxazol-5-yl)ethyl)-7,11,14,20-tetraoxo-7,8,9,10,11,12,13,14,17,18,19,19a,20,21,22,23-hexadecahydro-16H-pyrido[2′,1′:6,7][1]oxa[4,7,10,14]tetraazacycloheptadecino[17,16-c]quinoline-9-carboxamide]
9 | 305 | 168 | CO[C@H]1C[C@]2(C1)C(=O)N[C@H](Cc1ccccc1)COc1ccc3ccccc3c1C(=O)N[C@H](C(=O)NCCc1ccc(-n3nccn3)cc1)CC(=O)N(C)[C@@H](CC(C)C)C(=O)N2C [Example 492, (1r,3S,3′S,7′S,13′R)-N-(4-(2H-1,2,3-triazol-2-yl)phenethyl)-13′-benzyl-7′-isobutyl-3-methoxy-6′,9′-dimethyl-1′,5′,8′,11′-tetraoxo-2′,3′,4′,5′,6′,7′,8′,9′,11′,12′,13′,14′-dodecahydro-1′H-spiro[cyclobutane-1,10′-naphtho[1,2-p][1]oxa[4,7,10,14]tetraazacycloheptadecine]-3′-carboxamide]
10 | 687 | 253 | CO[C@H]1C[C@]2(C1)C(=O)N[C@H](Cc1ccccc1)COc1cnc3ccccc3c1C(=O)N[C@H](C(=O)NCCc1ccc(-n3nccn3)cc1)CC(=O)N(C)[C@@H](CC(C)C)C(=O)N2C [Example 493, (1r,3S,3′S,7′S,13′R)-N-(4-(2H-1,2,3-triazol-2-yl)phenethyl)-13′-benzyl-7′-isobutyl-3-methoxy-6′,9′-dimethyl-1′,5′,8′,11′-tetraoxo-2′,3′,4′,5′,6′,7′,8′,9′,11′,12′,13′,14′-dodecahydro-1′H-spiro[cyclobutane-1,10′-[1]oxa[4,7,10,14]tetraazacycloheptadecino[17,16-c]quinoline]-3′-carboxamide]
11 | 296 | 207 | Cc1cc(CCNC(=O)[C@@H]2CC(=O)N(C)[C@@H](CC(C)C)C(=O)N(C)C3(Cc4ccccc4C3)C(=O)N[C@H](Cc3ccccc3)COc3cnc4ccccc4c3C(=O)N2)on1 [Example 495, (3′S,7′S,13′R)-13′-benzyl-7′-isobutyl-6′,9′-dimethyl-N-(2-(3-methylisoxazol-5-yl)ethyl)-1′,5′,8′,11′-tetraoxo-1,2′,3,3′,4′,5′,6′,7′,8′,9′,11′,12′,13′,14′-tetradecahydro-1′H-spiro[indene-2,10′-[1]oxa[4,7,10,14]tetraazacycloheptadecino[17,16-c]quinoline]-3′-carboxamide]
12 | 523 | 317 | CC(C)C[C@H]1C(=O)N(C)C2(CC2)C(=O)N[C@H](Cc2ccccc2)COc2cnc3ccccc3c2C(=O)N[C@H](C(=O)NCCc2ccc(-c3ncccn3)cc2)CC(=O)N1C [Example 496, (3′S,7′S,13′R)-13′-benzyl-7′-isobutyl-6′,9′-dimethyl-1′,5′,8′,11′-tetraoxo-N-(4-(pyrimidin-2-yl)phenethyl)-2′,3′,4′,5′,6′,7′,8′,9′,11′,12′,13′,14′-dodecahydro-1′H-spiro[cyclopropane-1,10′-[1]oxa[4,7,10,14]tetraazacycloheptadecino[17,16-c]quinoline]-3′-carboxamide]
13 | 535 | 171 | CC(C)C[C@H]1C(=O)N2CCCC[C@H]2C(=O)N[C@H](Cc2ccccc2)COc2cnc3c(F)cccc3c2C(=O)N[C@H](C(=O)NCCc2cc(C3CC3)on2)CC(=O)N1C [Example 497, (9S,13S,19aS,22R)-22-benzyl-N-(2-(5-cyclopropylisoxazol-3-yl)ethyl)-3-fluoro-13-isobutyl-12-methyl-7,11,14,20-tetraoxo-7,8,9,10,11,12,13,14,17,18,19,19a,20,21,22,23-hexadecahydro-16H-pyrido[2′,1′:6,7][1]oxa[4,7,10,14]tetraazacycloheptadecino[17,16-c]quinoline-9-carboxamide]
14 | 189 | 321 | CC(C)C[C@H]1C(=O)N2CCCC[C@@H]2C(=O)N[C@H](Cc2ccccc2)COc2cnc3c(F)cccc3c2C(=O)N[C@H](C(=O)NCCc2cc(C3CC3)no2)CC(=O)N1C [Example 499, (9S,13S,19aR,22R)-22-benzyl-N-(2-(3-cyclopropylisoxazol-5-yl)ethyl)-3-fluoro-13-isobutyl-12-methyl-7,11,14,20-tetraoxo-7,8,9,10,11,12,13,14,17,18,19,19a,20,21,22,23-hexadecahydro-16H-pyrido[2′,11:6,7][1]oxa[4,7,10,14]tetraazacycloheptadecino[17,16-c]quinoline-9-carboxamide]
15 | 553 | 199 | CC(C)C[C@H]1C(=O)N2CCCC[C@H]2C(=O)N[C@H](Cc2ccccc2)COc2cnc3c(F)cccc3c2C(=O)N[C@H](C(=O)NCCc2cc(C3CC3)no2)CC(=O)N1C [Example 500, (9S,13S,19aS,22R)-22-benzyl-N-(2-(3-cyclopropylisoxazol-5-yl)ethyl)-3-fluoro-13-isobutyl-12-methyl-7,11,14,20-tetraoxo-7,8,9,10,11,12,13,14,17,18,19,19a,20,21,22,23-hexadecahydro-16H-pyrido[2′,1′:6,7][1]oxa[4,7,10,14]tetraazacycloheptadecino[17,16-c]quinoline-9-carboxamide]
